Measured values reported in ChEMBL document CHEMBL5143597, “Design and synthesis of novel spirocyclic carboxylic acids as potent and orally bioavailable DGAT1 inhibitors and their biological evaluation” (Bioorg Med Chem Lett, 2022).
Calls of active or inactive are those of the source. The calls are words filed in the database; no cut-off is given here.

Key:
[1] = target: 2-acylglycerol O-acyltransferase 2 (Homo sapiens) (UniProt Q3SYC2); experiment: Inhibition of recombinant human MGAT2 expressed in Sf9 cell membrane assessed as inhibition of triglyceride synthesis at 10 uM for 1 hr by LC-MS-based mass spectrophotometric analysis
Chain of 2-acylglycerol O-acyltransferase 2 (Homo sapiens) (Q3SYC2 whole entry, looked up): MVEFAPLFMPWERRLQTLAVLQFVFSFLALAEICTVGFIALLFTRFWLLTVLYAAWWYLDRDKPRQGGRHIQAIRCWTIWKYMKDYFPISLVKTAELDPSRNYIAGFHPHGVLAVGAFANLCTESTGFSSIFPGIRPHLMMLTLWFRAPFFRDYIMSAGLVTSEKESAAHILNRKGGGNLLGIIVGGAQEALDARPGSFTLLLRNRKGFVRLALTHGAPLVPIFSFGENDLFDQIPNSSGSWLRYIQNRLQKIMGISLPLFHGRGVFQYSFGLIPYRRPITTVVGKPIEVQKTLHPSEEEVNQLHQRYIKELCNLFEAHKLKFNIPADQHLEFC

[2] = Inhibition of human […] in HepG2 cells assessed as inhibition of triglyceride synthesis at 1 uM incubated for 1 hrs followed by 13C-addition of 13C-oleic acid pre-complexed with fatty acid free BSA for 6 hrs by LC/MS/MS analysis; conditions: time 7.0 hrs
[3] = Inhibition of human […] in HepG2 cells assessed as inhibition of triglyceride synthesis at 100 nM incubated for 1 hrs followed by 13C-addition of 13C-oleic acid pre-complexed with fatty acid free BSA for 6 hrs by LC/MS/MS analysis; conditions: time 7.0 hrs
[4] = Inhibition of human […] in HepG2 cells assessed as inhibition of triglyceride synthesis at 300 nM incubated for 1 hrs followed by 13C-addition of 13C-oleic acid pre-complexed with fatty acid free BSA for 6 hrs by LC/MS/MS analysis; conditions: time 7.0 hrs
Mus musculus [5] = experiment: In vivo inhibition of DGAT1 in C57BL/6 mouse model of acute lipid challenge assessed as reduction in chylomicron derived plasma triglyceride excursion at 3 to 10 mg/kg, po as corn oil bolus by Oral lipid tolerance test relative to control; assay type: functional, organism-based; conditions: dose 3-10 mg/kg
Mus musculus [6] = experiment: In vivo inhibition of DGAT1 in C57BL/6 mouse model of acute lipid challenge assessed as reduction in AUC plasma triglyceride level at 3 to 10 mg/kg, po as corn oil bolus by Oral lipid tolerance test relative to control; assay type: functional, organism-based; conditions: dose 3-10 mg/kg
[7] = target: T1, Diacylglycerol O-acyltransferase 1 (Homo sapiens, UniProt O75907); experiment: Inhibition of recombinant human DGAT1 expressed in Sf9 cell membrane assessed as inhibition of triglyceride synthesis incubated for 1 hrs by LC-MS-based mass spectrophotometric analysis; assay type: cell membranes
T1 sequence (O75907 whole entry): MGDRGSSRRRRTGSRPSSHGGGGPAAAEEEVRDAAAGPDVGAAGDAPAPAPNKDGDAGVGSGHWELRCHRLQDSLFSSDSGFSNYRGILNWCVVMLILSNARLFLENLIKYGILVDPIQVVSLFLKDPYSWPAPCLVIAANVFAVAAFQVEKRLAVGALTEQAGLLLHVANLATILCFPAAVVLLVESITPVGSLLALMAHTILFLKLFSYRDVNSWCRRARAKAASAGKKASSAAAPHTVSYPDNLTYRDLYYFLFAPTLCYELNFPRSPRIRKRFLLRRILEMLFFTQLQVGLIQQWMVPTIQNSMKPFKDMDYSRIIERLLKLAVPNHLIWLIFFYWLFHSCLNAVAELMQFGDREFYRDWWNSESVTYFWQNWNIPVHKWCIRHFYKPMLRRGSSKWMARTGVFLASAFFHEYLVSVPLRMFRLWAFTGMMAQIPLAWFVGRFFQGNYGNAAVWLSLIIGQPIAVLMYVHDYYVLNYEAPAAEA

[8] = target: T1, Diacylglycerol O-acyltransferase 1; experiment: Inhibition of human DGAT1 in serum starved HEK293 cells assessed as inhibition of triglyceride synthesis incubated for 20 mins followed by 13C-addition of 13C-oleic acid pre-complexed with BSA for 120 mins by LC-MS-based mass spectrophotometric analysis; assay type: cell-based
[9] = Metabolic stability in rat liver microsomes assessed as parent compound remaining at 1 uM and measured at 30 mins by LC-MS/MS analysis; assay type: ADME, Microsome; conditions: read-out: Stability
[10] = Metabolic stability in mouse liver microsomes assessed as parent compound remaining at 1 uM and measured at 30 mins by LC-MS/MS analysis; assay type: ADME, Microsome; conditions: read-out: Stability
[11] = Metabolic stability in human liver microsomes assessed as parent compound remaining at 1 uM and measured at 30 mins by LC-MS/MS analysis; assay type: ADME, Microsome; conditions: read-out: Stability
hERG (KCNH2) = hERG (KCNH2) (Homo sapiens, UniProt Q12809); experiment: Displacement of [3H]astemizole from human ERG expressed in HEK293 cell membrane at 30 uM for 2 hrs by Radiometric displacement assay; assay type: toxicity; conditions: HEK293 cell membranes that express hERG, probe [3H]astemizole
Chain of hERG (KCNH2) (Q12809 whole entry): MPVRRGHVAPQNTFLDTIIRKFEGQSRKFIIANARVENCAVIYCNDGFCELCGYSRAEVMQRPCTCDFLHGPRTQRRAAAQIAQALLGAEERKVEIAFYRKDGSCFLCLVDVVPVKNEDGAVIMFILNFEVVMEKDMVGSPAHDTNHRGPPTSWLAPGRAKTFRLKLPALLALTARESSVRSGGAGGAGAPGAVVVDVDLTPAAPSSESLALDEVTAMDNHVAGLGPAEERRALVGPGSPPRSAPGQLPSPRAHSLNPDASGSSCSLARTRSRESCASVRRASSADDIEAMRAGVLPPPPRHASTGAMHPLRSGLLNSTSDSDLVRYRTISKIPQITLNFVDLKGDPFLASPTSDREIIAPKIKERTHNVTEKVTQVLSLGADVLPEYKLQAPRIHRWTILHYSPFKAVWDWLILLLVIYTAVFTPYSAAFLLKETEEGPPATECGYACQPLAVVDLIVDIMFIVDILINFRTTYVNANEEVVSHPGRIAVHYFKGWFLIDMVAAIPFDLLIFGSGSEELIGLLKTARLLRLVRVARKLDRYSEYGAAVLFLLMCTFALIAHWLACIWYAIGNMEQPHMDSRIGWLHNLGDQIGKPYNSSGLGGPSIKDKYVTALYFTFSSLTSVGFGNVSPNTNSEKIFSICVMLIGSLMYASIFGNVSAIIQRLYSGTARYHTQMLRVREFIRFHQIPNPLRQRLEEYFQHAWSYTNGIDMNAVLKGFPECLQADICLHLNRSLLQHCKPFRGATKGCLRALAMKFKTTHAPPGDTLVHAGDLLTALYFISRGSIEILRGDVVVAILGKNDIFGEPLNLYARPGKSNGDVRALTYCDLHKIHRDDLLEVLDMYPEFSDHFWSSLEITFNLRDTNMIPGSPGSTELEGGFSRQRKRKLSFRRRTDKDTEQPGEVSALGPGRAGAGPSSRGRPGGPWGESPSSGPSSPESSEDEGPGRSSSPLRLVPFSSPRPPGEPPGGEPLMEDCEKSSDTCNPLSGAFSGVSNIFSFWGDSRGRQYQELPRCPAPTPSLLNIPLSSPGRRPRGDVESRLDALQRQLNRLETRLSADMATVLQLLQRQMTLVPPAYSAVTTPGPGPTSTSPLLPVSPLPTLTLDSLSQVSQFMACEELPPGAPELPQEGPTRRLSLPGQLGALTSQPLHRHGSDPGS

[12] = Plasma protein binding in rat; assay type: ADME, cell-free; conditions: read-out: PPB
[13] = Plasma protein binding in mouse; assay type: ADME, cell-free; conditions: read-out: PPB (converted)
[14] = Clearance in C57BL/6 mouse at 3 mg/kg, iv or 10 mg/kg, po and measured up to 24 hrs by LC-MS/MS analysis; assay type: ADME, organism-based; conditions: in vivo
[15] = Apparent permeability across apical to basolateral side in MDCK cells at 2.5 uM for 90 mins; assay type: ADME, cell-based, Canis lupus familiaris; conditions: dog
[16] = Volume of distribution at steady state in C57BL/6 mouse at 3 mg/kg, iv or 10 mg/kg, po and measured up to 24 hrs by LC-MS/MS analysis; assay type: ADME, organism-based; conditions: in vivo, read-out: Vdss
[17] = AUC in C57BL/6 mouse at 3 mg/kg, iv or 10 mg/kg, po and measured up to 24 hrs by LC-MS/MS analysis; assay type: ADME, organism-based; parameters: time < 24 hrs, dose 3 mg/kg, route iv; conditions: in vivo
[18] = Cmax in C57BL/6 mouse at 3 mg/kg, iv or 10 mg/kg, po and measured up to 24 hrs by LC-MS/MS analysis; assay type: ADME, organism-based; parameters: dose 3 mg/kg, time < 24 hrs, route iv; conditions: in vivo
[19] = Tmax in C57BL/6 mouse at 3 mg/kg, iv or 10 mg/kg, po and measured up to 24 hrs by LC-MS/MS analysis; assay type: ADME, organism-based; conditions: in vivo
[20] = Half life in C57BL/6 mouse at 3 mg/kg, iv or 10 mg/kg, po and measured up to 24 hrs by LC-MS/MS analysis; assay type: ADME, organism-based; conditions: in vivo
[21] = Oral bioavailability in C57BL/6 mouse 10 mg/kg or 3 mg/kg, iv and measured up to 24 hrs by LC-MS/MS analysis; assay type: ADME, organism-based; conditions: in vivo
[22] = Volume of distribution at steady state in Wistar rat at 3 mg/kg, iv or 10 mg/kg, po and measured up to 24 hrs by LC-MS/MS analysis; assay type: ADME, organism-based; conditions: in vivo, read-out: Vdss
[23] = Clearance in Wistar rat at 3 mg/kg, iv or 10 mg/kg, po and measured up to 24 hrs by LC-MS/MS analysis; assay type: ADME, organism-based; conditions: in vivo
[24] = AUC in Wistar rat at 3 mg/kg, iv or 10 mg/kg, po and measured up to 24 hrs by LC-MS/MS analysis; assay type: ADME, organism-based; parameters: dose 3 mg/kg, time < 24 hrs, route iv; conditions: in vivo
[25] = Cmax in Wistar rat at 3 mg/kg, iv or 10 mg/kg, po and measured up to 24 hrs by LC-MS/MS analysis; assay type: ADME, organism-based; parameters: dose 3 mg/kg, time < 24 hrs, route iv; conditions: in vivo
[26] = Tmax in Wistar rat at 3 mg/kg, iv or 10 mg/kg, po and measured up to 24 hrs by LC-MS/MS analysis; assay type: ADME, organism-based; conditions: in vivo
[27] = Half life in Wistar rat at 3 mg/kg, iv or 10 mg/kg, po and measured up to 24 hrs by LC-MS/MS analysis; assay type: ADME, organism-based; conditions: in vivo
[28] = Oral bioavailability in Wistar rat at 10 mg/kg or 3 mg/kg, iv and measured up to 24 hrs by LC-MS/MS analysis; assay type: ADME, organism-based; conditions: in vivo
[29] = Drug distribution in C57BL/6 mouse plasma 10 mg/kg, po and measured at 1 hrs post dose by LC-MS/MS analysis; assay type: ADME, organism-based
[30] = Drug distribution in C57BL/6 mouse plasma 10 mg/kg, po and measured at 2 hrs post dose by LC-MS/MS analysis; assay type: ADME, organism-based
[31] = Drug distribution in C57BL/6 mouse plasma 10 mg/kg, po and measured at 8 hrs post dose by LC-MS/MS analysis; assay type: ADME, organism-based
[32] = Drug distribution in C57BL/6 mouse adipose tissue 10 mg/kg, po and measured at 1 hrs post dose by LC-MS/MS analysis; assay type: ADME, organism-based; conditions: read-out: Ct
[33] = Drug distribution in C57BL/6 mouse adipose tissue 10 mg/kg, po and measured at 2 hrs post dose by LC-MS/MS analysis; assay type: ADME, organism-based; conditions: read-out: Ct
[34] = Drug distribution in C57BL/6 mouse adipose tissue 10 mg/kg, po and measured at 8 hrs post dose by LC-MS/MS analysis; assay type: ADME, organism-based; conditions: read-out: Ct
[35] = Drug distribution in C57BL/6 mouse liver 10 mg/kg, po and measured at 1 hrs post dose by LC-MS/MS analysis; assay type: ADME, organism-based; conditions: read-out: Ct
[36] = Drug distribution in C57BL/6 mouse liver 10 mg/kg, po and measured at 2 hrs post dose by LC-MS/MS analysis; assay type: ADME, organism-based; conditions: read-out: Ct
[37] = Drug distribution in C57BL/6 mouse liver 10 mg/kg, po and measured at 8 hrs post dose by LC-MS/MS analysis; assay type: ADME, organism-based; conditions: read-out: Ct
[38] = Drug distribution in C57BL/6 mouse skeletal muscle 10 mg/kg, po and measured at 1 hrs post dose by LC-MS/MS analysis; assay type: ADME, organism-based, Skeletal muscle tissue; conditions: read-out: Ct
[39] = Drug distribution in C57BL/6 mouse skeletal muscle 10 mg/kg, po and measured at 2 hrs post dose by LC-MS/MS analysis; assay type: ADME, organism-based, Skeletal muscle tissue; conditions: read-out: Ct
[40] = Drug distribution in C57BL/6 mouse skeletal muscle 10 mg/kg, po and measured at 8 hrs post dose by LC-MS/MS analysis; assay type: ADME, organism-based, Skeletal muscle tissue; conditions: read-out: Ct
[41] = Drug distribution in C57BL/6 mouse brain 10 mg/kg, po and measured at 1 hrs post dose by LC-MS/MS analysis; assay type: ADME, organism-based; conditions: read-out: Ct
[42] = Drug distribution in C57BL/6 mouse brain 10 mg/kg, po and measured at 2 hrs post dose by LC-MS/MS analysis; assay type: ADME, organism-based; conditions: read-out: Ct

O=C(Nc1ccc(C2CCC3(CC2)CC(C(=O)O)C3)cc1)c1nnc(Nc2ccc(F)c(F)c2)o1 (centres undefined)
inhibition [1]: 16%
inhibition [2]: 96%
inhibition [3]: 88%
inhibition [4]: 94%

O=C(Nc1ccc(N2CCC3(CC2)CC(C(=O)O)C3)nc1)c1nnc(Nc2ccc(F)c(F)c2)o1
inhibition (Mus musculus [5]): Active
inhibition (Mus musculus [6]): Active

O=C(O)CC1CCC2(CC1)CCC(c1ccc(NC(=O)c3nnc(Nc4ccc(F)c(F)c4)o3)cc1)CC2 (stereo in doubt; 8a)
IC50 [7]: 64 nM
IC50 [8]: 24 nM

O=C(O)CC1CCC2(CC1)CCC(c1ccc(NC(=O)c3nnc(Nc4ccc(F)c(F)c4)o3)cn1)CC2 (centres undefined)
IC50 [8]: 16 nM
remaining at 0.5 h, 1 µM [9]: 71%
remaining at 0.5 h, 1 µM [10]: 88%
remaining at 0.5 h, 1 µM [11]: 100%
inhibition at 2 h, 30 µM (hERG (KCNH2)): 26%
fraction unbound [12]: < 0.01
fraction unbound [13]: 0.03
clearance [14]: 21 mL/min/kg
Papp A→B at 1.5 h, 2.5 µM [15]: 4.7 ×10⁻⁶ cm/s
Vd [16]: 1.8 L/kg
AUC at 24 h [17]: 4.4 µM·h
Cmax [18]: 2600 nM
Tmax [19]: 0.5 h
half-life [20]: 2.1 h
bioavailability [21]: 53%
Vd [22]: 0.5 L/kg
clearance [23]: 1.2 mL/min/kg
AUC at 24 h [24]: 23.7 µM·h
Cmax [25]: 3800 nM
Tmax [26]: 1.3 h
half-life [27]: 6.4 h
bioavailability [28]: 9%
concentration at 1 h [29]: 2760 nM
concentration at 2 h [30]: 1860 nM
concentration at 8 h [31]: 80 nM
concentration at 1 h [32]: 740 nM
concentration at 2 h [33]: 470 nM
concentration at 8 h [34]: 110 nM
concentration at 1 h [35]: 74000 nM
concentration at 2 h [36]: 73000 nM
concentration at 8 h [37]: 28000 nM
concentration at 1 h [38]: 520 nM
concentration at 2 h [39]: 290 nM
concentration at 8 h [40]: 70 nM
concentration at 1 h [41]: 20 nM
concentration at 2 h [42]: 60 nM
